Source: publication PMC9718554, “Discovery of a fragment hit compound targeting D-Ala:D-Ala ligase of bacterial peptidoglycan biosynthesis” (Journal of Enzyme Inhibition and Medicinal Chemistry, 2022)
Like-named read-outs stand apart in the source and are kept apart here.

Biological target: T1, E. coli DdlB enzyme (D-alanine:D-alanine ligase) (Escherichia coli, UniProt P07862)
T1 construct: made in house; host or cells: E. coli
Test: biochemical
Details: read-out: DdlB RA; for remaining activity at 1700 µM: tested concentration 1.7 mM; for remaining activity at 2600 µM: tested concentration 2.6 mM; for remaining activity at 2000 µM: tested concentration 2.0 mM; for remaining activity at 1800 µM: tested concentration 1.8 mM; for remaining activity at 2200 µM: tested concentration 2.2 mM; for remaining activity at 2700 µM: tested concentration 2.7 mM; for remaining activity at 2300 µM: tested concentration 2.3 mM; for remaining activity at 2400 µM: tested concentration 2.4 mM; for remaining activity at 2500 µM: tested concentration 2.5 mM; for remaining activity at 2100 µM: tested concentration 2.1 mM; for remaining activity at 2800 µM: tested concentration 2.8 mM; for remaining activity at 1900 µM: tested concentration 1.9 mM; for remaining activity at 3100 µM: tested concentration 3.1 mM

For `NS(=O)(=O)c1ccc(CNC(=O)c2ccncc2)cc1` [Compound Y205-1594], the remaining activity at 1700 µM was 102%.
For `CCS(=O)(=O)Nc1cc(C(C)(C)C)on1` [Compound Y206-0720], the remaining activity at 2600 µM was 91%.
`O=C(O)CCC(=O)NC1C2CC3CC(C2)CC1C3` (stereo not drawn) [Compound Y206-2966] was tested, and the remaining activity at 2000 µM was 90%.
With `Cc1ccc2c(c1)CCCN2C(=O)CCC(=O)O` [Compound Y206-3286] the remaining activity at 2000 µM (fragment library screening) was 90%.
Work on `O=C(O)[C@@H]1[C@H]2CC[C@H](CC2)[C@@H]1C(=O)NCc1ccco1` [Compound Y206-3693] yielded a remaining activity at 1800 µM (fragment library screening) of 92%.
Work on `CC1CCCCC1NS(=O)(=O)c1ccccc1` (stereo not drawn) [Compound Y206-4071] yielded a remaining activity at 2200 µM of 91%.
Molecule `Cc1ccc(S(=O)(=O)NC2CC2)c(C)c1` [Compound Y206-5066] has a remaining activity at 2700 µM of 94%.
In the case of `Cc1c(C)c(C)c(S(=O)(=O)NC(C)C)c(C)c1C` [Compound Y206-5269], the remaining activity at 2200 µM (residual activity) is reported as 77%.
`O=S(=O)(c1ccccc1)N1CCN2CCCC2C1` (stereo not drawn) [Compound Y206-5298] was tested, and the remaining activity at 2300 µM (residual activity) was 92%.
`CN(C)CC(=O)Nc1ccc(Cl)cn1` [Compound Y206-6252] gave a remaining activity at 2300 µM of 95%.
`CCS(=O)(=O)Nc1cccc(F)c1` [Compound Y207-1326] gave a remaining activity at 3000 µM (tested concentration 3.0 mM) of 92%.
For `NS(=O)(=O)c1ccc(CNC(=O)C2CCCC2)cc1` [Compound Y207-3980], the remaining activity at 1800 µM was 93%.
Molecule `CNS(=O)(=O)c1ccc2c(c1)CCN2C(C)=O` [Compound Y300-1529] has a remaining activity at 2400 µM of 90%.
With `Cc1ccccc1CS(=O)(=O)N1CCCC(C)C1` (stereo not drawn) [Compound Y300-2308] the remaining activity at 2200 µM (residual activity) was 95%.
`CN(C)S(=O)(=O)Cc1ccccc1F` [Compound Y300-2671] was tested, and the remaining activity at 2500 µM was 95%.
Work on `O=S(=O)(Cc1ccccc1F)N1CCOCC1` [Compound Y300-2685] yielded a remaining activity at 2100 µM of 95%.
Work on `Cc1ccccc1CS(=O)(=O)N(C)C` [Compound Y300-2769] yielded a remaining activity at 2800 µM of 87%.
In the case of `Cc1cccc(CS(=O)(=O)N2CCCC2)c1` [Compound Y300-2952], the remaining activity at 2300 µM is reported as 98%.
In the case of `Cc1ccc(CS(=O)(=O)N2CCc3ccccc32)cc1` [Compound Y300-3078], the remaining activity at 2100 µM (residual activity) is reported as 112%.
Molecule `CCn1cc(C(=O)Nc2ccccc2C(=O)O)cn1` [Compound Y501-0105] has a remaining activity at 1900 µM (residual activity) of 88%.
With `Cc1ccc(-c2noc(C(=O)O)n2)cc1` [Compound Y501-1890] the remaining activity at 2500 µM was 77%.
In the case of `O=C(O)c1cc(Br)cc(Br)c1O` [Compound Y501-3736], the remaining activity at 1700 µM is reported as -39%.
For `Cc1nn(C(F)F)cc1S(=O)(=O)N1CCC(C)CC1` [Compound Y501-4822], the remaining activity at 1900 µM (residual activity) was 97%.
With `CCN(C(=O)c1n[nH]cc1Cl)c1ccccc1` [Compound Y501-5069] the remaining activity at 2400 µM was 95%.
Molecule `Cc1c(Br)c(C(=O)O)nn1C` [Compound Y501-6296] has a remaining activity at 2300 µM (residual activity) of 107%.
In the case of `CCn1cc(Br)c(C(=O)O)n1` [Compound Y501-6363], the remaining activity at 2300 µM (residual activity) is reported as 90%.
`Oc1cc(-c2ccccc2)n[nH]1` [Compound Y501-8801] showed a remaining activity at 3100 µM of 102%.
`N#Cc1cnn2c1NC(C1CC1)CC2C(F)(F)F` (stereo not drawn) [Compound Y501-9194] gave a remaining activity at 2300 µM of 83%.
Molecule `Cc1cccc(-c2ccnc3c(C(=O)O)cnn23)c1` [Compound Y502-0116] has a remaining activity at 2000 µM (fragment library screening) of 6%.
Work on `Cc1c(S(=O)(=O)NC2CCCCCC2)cnn1C` [Compound Y502-6613] yielded a remaining activity at 1800 µM (residual activity) of 94%.
With `CCn1nccc1[C@H](C)NC(=O)[C@H]1CCCC[C@H]1C(=O)O` [Compound Y503-1571] the remaining activity at 1700 µM (fragment library screening) was 93%.
`Cc1ccn(C(C)C(=O)O)n1` (stereo not drawn) [Compound Y503-2318] was tested, and the remaining activity at 3200 µM (tested concentration 3.2 mM) was 95%.
In the case of `O=C(O)c1ccn(COc2ccc(Cl)cc2Cl)n1` [Compound Y503-2333], the remaining activity at 1700 µM (residual activity) is reported as 96%.
`Cc1nn(C)cc1-c1cc(C(=O)O)n[nH]1` [Compound Y503-2347] showed a remaining activity at 2400 µM of 95%.
Work on `Cc1cc(C(=O)O)nn1C(F)F` [Compound Y503-2420] yielded a remaining activity at 2800 µM of 85%.
`Oc1cc(-c2ccco2)n[nH]1` [Compound Y503-3143] showed a remaining activity at 3300 µM (tested concentration 3.3 mM) of 98%.
`Cn1ncc(C(=O)O)c1C(=O)NCC1CCCO1` (stereo not drawn) [Compound Y504-5972] showed a remaining activity at 2000 µM of 96%.
`Cc1c(-c2cc(C(=O)O)n3nccc3n2)cnn1C` [Compound Y504-7677] showed a remaining activity at 1900 µM of 86%.
`O=C(NCc1cc[nH]n1)[C@H]1CC=CC[C@H]1C(=O)O` [Compound Y504-7917] showed a remaining activity at 2000 µM (fragment library screening) of 88%.
`Cc1onc(C(=O)O)c1COc1ccc([N+](=O)[O-])cc1` [Compound Y504-8568] gave a remaining activity at 1800 µM (fragment library screening) of 97%.
With `Cc1cc(C(=O)O)n2nc(C)c(Cl)c2n1` [Compound Y504-8761] the remaining activity at 2200 µM (residual activity) was 98%.
In the case of `OCCn1cc(Br)cn1` [Compound Y504-8814], the remaining activity at 2900 µM (tested concentration 2.9 mM) is reported as 97%.
In the case of `CCn1ncc(Cn2cc(Cl)c(N)n2)c1C` [Compound Y504-8851], the remaining activity at 2100 µM is reported as 96%.
In the case of `COCn1nc(C)c(N)c1C` [Compound Y504-8876], the remaining activity at 3900 µM (residual activity of DdlB, fragment library screening, tested concentration 3.9 mM) is reported as 92%.
`COC(=O)Cn1nc(C(F)F)c2c1CCCC2` [Compound Y504-8961] was tested, and the remaining activity at 2000 µM was 94%.
Molecule `CC1(C)CC(=O)c2cnc(NC3CC3)nc2C1` [Compound Y600-1530] has a remaining activity at 2400 µM of 89%.
With `CCOC1CN=C2C(C#N)=CC=CN21` (stereo not drawn) [Compound Y600-6204] the remaining activity at 2200 µM was 92%.
For `CCc1nc2ccc(C(N)=O)cc2nc1CC` [Compound Z601-0869], the remaining activity at 2400 µM was 88%.
`CCn1c(C(=O)NC(C)C)cc2occc21` [Compound Z601-0941] showed a remaining activity at 2300 µM of 96%.
`CCC1CCCCN1C(=O)C1CCCN1C(C)=O` (stereo not drawn) [Compound Z601-4855] was tested, and the remaining activity at 2400 µM was 74%.
`Cc1ccc(Cn2ccnc2C(N)=O)cc1` [Compound Z601-5404] was tested, and the remaining activity at 2600 µM was 99%.
`CNC(=O)c1cc(C)nc2ccc(C(C)C)cc12` [Compound Z601-7136] gave a remaining activity at 2100 µM of 97%.
In the case of `Cn1c(=O)cnc2ccc(N3CCCCCC3)nc21` [Compound Z601-8402], the remaining activity at 2300 µM is reported as 83%.
Molecule `CCS(=O)(=O)N1CCCN(C(=O)C2CC2)CC1` [Compound Z603-0719] has a remaining activity at 2300 µM of 98%.
For `CC(C)n1nnc2cc(C(N)=O)ccc21` [Compound Z606-2126], the remaining activity at 2400 µM was 92%.
Molecule `Cc1cc(C2CCCN2C(=O)c2ccc(F)c(F)c2)on1` (stereo not drawn) [Compound Z632-2808] has a remaining activity at 1700 µM (residual activity) of 98%.
`CCCc1nnc(-c2ccncc2)o1` [Compound Z632-7367] was tested, and the remaining activity at 2600 µM was 94%.
`CC(C)c1nnc(-c2cnccn2)o1` [Compound Z632-7479] gave a remaining activity at 2600 µM of 105%.
`O=C1Nc2ncccc2OC1c1ccccc1` (stereo not drawn) [FF01-0341] was tested, and the remaining activity at 2200 µM was 106%.
Work on `CCn1c(C(=O)N2CCC(C(=O)O)CC2)cc2occc21` [FF01-0413] yielded a remaining activity at 1900 µM (residual activity) of 110%.
Molecule `Cc1cc2n(n1)CCC(=O)N2CCCC(=O)O` [FF01-0590] has a remaining activity at 2300 µM of 92%.
`CN1CCN(C)C1c1ccccc1O` [FF01-2467] showed a remaining activity at 3100 µM of 93%.
`O=C(O)C1CCN(c2cnc(N3CCCC3)nc2)CC1` [FF01-3116] was tested, and the remaining activity at 2200 µM (residual activity) was 69%.
In the case of `CN1CCN(C(=O)CCC(=O)O)c2cccnc21` [FF01-3162], the remaining activity at 2400 µM is reported as 65%.
`CC1Cc2ccc(CN)cc2N1C(=O)c1ccccc1` (stereo not drawn) [FF01-3167] gave a remaining activity at 2300 µM (residual activity) of 51%.
`c1cnc2[nH]cc(CCN3CCNCC3)c2c1` [FF01-3277] was tested, and the remaining activity at 2200 µM (residual activity) was 62%.
Molecule `NCCCN1CCCC1=O` [FF01-3614] has a remaining activity at 4200 µM (residual activity of DdlB, fragment library screening, tested concentration 4.2 mM) of 90%.
With `Cc1nn(C(C)C(=O)O)cc1Cl` (stereo not drawn) [FF01-4477] the remaining activity at 2700 µM (residual activity of DdlB, fragment library screening) was 89%.
`Cc1nc(N)nc(C)c1CCC(=O)O` [FF01-4599] showed a remaining activity at 3100 µM of 91%.
